Source: patent US20080187605A1, “PREVENTING PATHOLOGICAL NERVE CELL SUICIDE (NEUROAPOPTOSIS) IN IMMATURE NERVOUS SYSTEMS” (priority 2007, published 2008)
“Also recorded” adds a separate entry of the source. Read-outs that look alike come from different tables or passages of the source.

How the values were obtained:
infant mouse brain [1] = conditions: 6 hrs; for number of AC3-positive profiles, ethanol by itself: ethanol 250 mg/g, mean across 5 brain regions, vs saline
Protocol: The mean number of AC3-positive profiles per mm^3 across all 5 brain regions was calculated for each treatment condition.

ERK-1 = conditions: infant mice; within less than 30 minutes after ethanol
ERK-2 = conditions: infant mice; within less than 30 minutes after ethanol
AKT = conditions: infant mice; within 30 minutes after ethanol
[2] = system: caudate/putamen of infant mouse brain; assay: Xenon and isoflurane neuroapoptosis, activated caspase-3 stereology
Protocol: Seven-day-old C57BL/6 mice were exposed to one of four conditions: air (control); 0.75% isoflurane; 70% xenon or 0.75% isoflurane+70% xenon (n≧9 per group) for 4 hours. All pups were euthanized 2 hours later for histopathological evaluation of the brains, using activated caspase-3 immunohistochemical staining to detect apoptotic neurons. Quantitative assessment of the number of apoptotic neurons in caudate/putamen under each condition was performed by unbiased stereology.
The results are depicted graphically in FIG. 7. In this graph, the number of apoptotic neurons under the control condition is given as 100% and the values for the experimental conditions are given as a percentage of the control.

infant mouse brain [3] = conditions: for number of AC3-positive profiles, ketamine by itself: five day old mice, ketamine 40 mg/kg, caudate nucleus and cerebral cortex, vs saline
Protocol: (§1) Five day old infant mice were treated either with saline or ketamine (40 mg/kg), or lithium carbonate (6 Meq/kg), or ketamine (40 mg/kg) plus lithium (6 Meq/kg). The animals were euthanized 6 hrs after initiation of drug exposure and the neuroapoptosis response in 2 different brain regions (caudate nucleus, cerebral cortex) was evaluated by stereological counting of neuronal profiles showing positive immunohistochemical staining for activated caspase 3 (AC3). The mean number of AC3-positive profiles per mm^3 across these 2 brain regions was calculated for each treatment condition.

infant mouse brain [4] = conditions: 6 hrs
Protocol: as §1, with “The” for “Five day old infant mice were treated either with saline or ketamine (40 mg/kg), or lithium carbonate (6 Meq/kg), or ketamine (40 mg/kg) plus lithium (6 Meq/kg). The”

[5] = system: infant mouse brain (RSC/S and thalamus); conditions: infant mice; single dose of lithium carbonate before brain injury or up to 4 hours after injury
Excerpt: The method used herein for creating a consistent and reproducible head injury, in infant rats and mice, uses an electromagnetic impact device with a moving coil actuator, mounted on the arm of a stereotaxic holder. The actuator is positioned over the skull of an anesthetized animal, and has a blunt tip aimed at a specific location and angle on the skull. The actuator is driven electromagnetically, and impacts the skull at a computer-controlled speed, delivering a precise concussive force to a targeted zone on the skull.
As described in reports such as Bayly et al 2006, this type of concussive force can be applied to a single side of the head, creating nerve cell death by two different mechanisms. Brain cells directly beneath the skull at the site of impact die by an excitotoxic mechanism, which is confined to the local impact zone, and which leads to end-stage cell death within 4 hours. […]
In these tests, apoptotic neurons were detected by immunohistochemical staining of activated caspase-3 proteins. The quantitative counts were performed in RSC/S and thalamus tissues taken from both (i) the ipsilateral side of the brain, which was damaged, and (ii) the contralateral side of the brain, which was not damaged. […]

[6] = system: caudate nucleus of infant mouse brain; assay: Pilocarpine pretreatment against isoflurane- or midazolam-induced neuroapoptosis, activated caspase 3 IHC counts
Excerpt: Agents that suppress neuronal activity, including GABAergic anesthetic agents such as midazolam and isoflurane, trigger neuroapoptosis in the infant mouse brain. If suppression of neuronal activity is a sufficient cause of the neuroapoptosis response, it is possible that agents that increase neuronal activity, such as the muscarinic cholinergic agonist, pilocarpine, might counteract this response. […] Control littermates received saline instead of pilocarpine, then were exposed to the same midazolam or isoflurane treatments. The animals were euthanized 6 hrs after initiation of anesthetic drug exposure and the neuroapoptosis response in the caudate nucleus was evaluated by stereological counting of neuronal profiles showing positive IHC staining for activated caspase 3.

7 day old rat brain = conditions: xenon administered 4 hours ahead as preconditioning stimulus; cited from earlier work

## CCO [ethanol]
Infant mouse brain [1]; five day old mice
  number of AC3-positive profiles, ethanol by itself: strong neuroapoptotic response
Infant mouse brain [1]; five day old mice, listed as Ethanol
  number of AC3-positive profiles, ethanol by itself: marked increase
ERK-1
  activated isoform of ERK-1: rapid decrease
ERK-2
  activated isoform of ERK-2: rapid decrease
AKT
  activated isoform of AKT: marked suppression

## FC(F)OC(Cl)C(F)(F)F (stereo not shown) [isoflurane]
[2]; mouse, in vivo
  neuroapoptosis in the caudate/putamen, drug alone compared to controls: significant increase

## CNC1(c2ccccc2Cl)CCCCC1=O (stereo not shown) [ketamine]
Infant mouse brain [3]; 6 hrs
  number of AC3-positive profiles, ketamine by itself: severe and pathological neuroapoptosis
Infant mouse brain [3]; 6 hrs, listed as Ketamine
  number of AC3-positive profiles, ketamine by itself: marked increase

## O=C([O-])[O-].[Li+].[Li+] [lithium, lithium carbonate]
Infant mouse brain [3]; lithium 6 Meq/kg
  protection against ketamine-induced neuroapoptosis: total protection; also recorded: potently prevent
Infant mouse brain [3]; lithium 6 Meq/kg plus ketamine 40 mg/kg, 6 hrs
  apoptosis rate, lithium plus ketamine: down to the same level as for lithium alone
Infant mouse brain [3]; lithium carbonate 6 Meq/kg, 6 hrs, ketamine experiment, vs saline controls
  number of AC3-positive profiles, lithium by itself (spontaneous neuroapoptosis): marked reduction
Infant mouse brain [4]; lithium 6 Meq/kg plus propofol 50 mg/kg
  apoptosis rate, lithium plus propofol: down to a level lower than the saline control level
Infant mouse brain [4]; lithium carbonate 6 Meq/kg, propofol experiment, vs saline controls
  number of AC3-positive profiles, lithium by itself (spontaneous neuroapoptosis): marked reduction
[5]
  apoptotic neurodegeneration after traumatic brain injury: prevented almost all
Infant mouse brain [1]; five day old mice, lithium carbonate 3 or 6 Meq/kg (equally strong), vs saline controls
  number of AC3-positive profiles, lithium by itself (spontaneous neuroapoptosis): marked reduction
Infant mouse brain [1]; lithium 3 Meq/kg plus ethanol 250 mg/g
  apoptosis rate, lithium plus ethanol: down to the same rate as in saline controls
Infant mouse brain [1]; lithium 6 Meq/kg (higher dose) plus ethanol 250 mg/g
  apoptosis rate, lithium plus ethanol: down to lower than the saline control level

## Cc1ncc2n1-c1ccc(Cl)cc1C(c1ccccc1F)=NC2 [midazolam]
[6]; infant mice, isoflurane 0.75% for 4 hrs or midazolam 9 mg/kg
  apoptotic response in the caudate nucleus, anesthetic alone: induced

## CC[C@@H]1C(=O)OC[C@@H]1Cc1cncn1C [pilocarpine]
[6]; P5 mice, pilocarpine 20 mg/kg 2 hrs before isoflurane 0.75% for 4 hrs, euthanized 6 hrs after start of anesthetic, vs saline pretreatment
  neuroapoptotic response to isoflurane in the caudate nucleus: significantly reduced; also recorded: markedly reduces
[6]; P5 mice, pilocarpine 20 mg/kg 2 hrs before midazolam 9 mg/kg, euthanized 6 hrs after start of anesthetic, vs saline pretreatment
  neuroapoptotic response to midazolam in the caudate nucleus: significantly reduced; also recorded: markedly reduces
[6]; infant mice, pilocarpine given prior to GABA anesthetic drug
  degeneration of caudate neurons caused by a GABA anesthetic drug: completely prevented, or greatly reduced
[6]; pilocarpine given at the same time as the anesthetic (protective if 2 or more hrs prior)
  protective effect depending on timing of pilocarpine: not if given at the same time

## [Xe] [xenon]
[2]; 0.75% isoflurane+70% xenon for 4 hours
  apoptotic response of xenon together with isoflurane, relative to xenon alone: only moderately higher
[2]; 0.75% isoflurane+70% xenon for 4 hours, control (air) given as 100%
  neurotoxic reaction of xenon plus isoflurane, greater than control: about 350%
[2]; 70% xenon combined with 0.75% isoflurane
  protection against isoflurane-induced neuroapoptosis: markedly reduces; also recorded: strongly protects; also recorded: markedly protects
[2]; 70% xenon or 0.75% isoflurane alone for 4 hours
  degree of neuroapoptotic response, drug alone: relatively weak neuroapoptogenic potential; also recorded: mild degree; also recorded: mild neuroapoptotic response
[2]; seven-day-old mice, 70% xenon or 0.75% isoflurane for 4 hours, euthanized 2 hours later, vs air
  neuroapoptosis in the caudate/putamen, drug alone compared to controls: significant increase
7 day old rat brain
  hypoxic and/or ischemic neurodegeneration: protect
